For assay [1], the system named is BaF3. The experiment in a line: Antiproliferative activity against mouse BaF3 cells harbouring CCDC6-RET assessed as inhibition of cell proliferation incubated for 72 hrs by CCK-8 assay. The format is functional, cell-based. Particulars: BaF3, 72 h.
Assay [2] deals with BaF3. The experiment in a line: Antiproliferative activity against mouse BaF3 cells harbouring CCDC6-RET V804M mutant assessed as inhibition of cell proliferation incubated for 72 hrs by CCK-8 assay. The format is functional, cell-based. Particulars: BaF3, 72 h. (Tetrazolium dyes change colour on reduction, which living cells bring about.)
In assay [3] the test system is BaF3. Briefly: Antiproliferative activity against mouse BaF3 cells harbouring CCDC6-RET G810C mutant assessed as inhibition of cell proliferation incubated for 72 hrs by CCK-8 assay. The format is functional, cell-based. Particulars: BaF3, 72 h.
For assay [4], the system named is BaF3. The experiment in a line: Antiproliferative activity against mouse BaF3 cells harbouring CCDC6-RET G810R mutant assessed as inhibition of cell proliferation incubated for 72 hrs by CCK-8 assay. Particulars: BaF3, 72 h. The format is functional, cell-based.
The target in assay [5] is Kinesin-1 heavy chain/ Tyrosine-protein kinase receptor RET (Homo sapiens, UniProt P07949). Briefly: Inhibition of wild type KIF5B-RET (unknown origin). Format: protein assay.
Assay [6] deals with Proto-oncogene tyrosine-protein kinase receptor Ret (Homo sapiens, UniProt P07949, G810R). Briefly: Inhibition of RET G810R mutant (unknown origin).
In assay [7] the target is Proto-oncogene tyrosine-protein kinase receptor Ret (Homo sapiens, UniProt P07949, V804M). Briefly: Inhibition of RET V804M mutant (unknown origin).
Assay [8] deals with BaF3. Briefly: Antiproliferative activity against mouse BaF3 cells harbouring CCDC6-RET V804M mutant assessed as inhibition of cell proliferation. Format: functional, cell-based.
Assay [9] deals with BaF3. Briefly: Antiproliferative activity against mouse BaF3 cells harbouring CCDC6-RET.
Assay [10] relates to BaF3. The experiment in a line: Antiproliferative activity against mouse BaF3 cells harbouring CCDC6-RET V804M mutant. The format is functional, cell-based.
Assay [11] relates to BaF3. The experiment in a line: Antiproliferative activity against mouse BaF3 cells harbouring CCDC6-RET G810C mutant. Format: functional, cell-based.
The test system of assay [12] is BaF3. Briefly: Antiproliferative activity against mouse BaF3 cells harbouring CCDC6-RET G810R mutant. Format: functional, cell-based.
Assay [13] concerns BaF3. Briefly: Antiproliferative activity against mouse BaF3 cells harbouring KIF5B-RET assessed as inhibition of cell proliferation. Format: functional, cell-based.
Assay [14] deals with BaF3. The experiment in a line: Antiproliferative activity against mouse BaF3 cells harbouring KIF5B-RET G810C mutant assessed as inhibition of cell proliferation. The format is functional, cell-based.
Assay [15] deals with BaF3. Briefly: Antiproliferative activity against mouse BaF3 cells harbouring KIF5B-RET G810R mutant assessed as inhibition of cell proliferation. The format is functional, cell-based.

pIC50: −log10 of the molar value.

Sequence of Proto-oncogene tyrosine-protein kinase receptor Ret (Homo sapiens, UniProt P07949, V804M) (P07949 29-1114 V804M limits assumed): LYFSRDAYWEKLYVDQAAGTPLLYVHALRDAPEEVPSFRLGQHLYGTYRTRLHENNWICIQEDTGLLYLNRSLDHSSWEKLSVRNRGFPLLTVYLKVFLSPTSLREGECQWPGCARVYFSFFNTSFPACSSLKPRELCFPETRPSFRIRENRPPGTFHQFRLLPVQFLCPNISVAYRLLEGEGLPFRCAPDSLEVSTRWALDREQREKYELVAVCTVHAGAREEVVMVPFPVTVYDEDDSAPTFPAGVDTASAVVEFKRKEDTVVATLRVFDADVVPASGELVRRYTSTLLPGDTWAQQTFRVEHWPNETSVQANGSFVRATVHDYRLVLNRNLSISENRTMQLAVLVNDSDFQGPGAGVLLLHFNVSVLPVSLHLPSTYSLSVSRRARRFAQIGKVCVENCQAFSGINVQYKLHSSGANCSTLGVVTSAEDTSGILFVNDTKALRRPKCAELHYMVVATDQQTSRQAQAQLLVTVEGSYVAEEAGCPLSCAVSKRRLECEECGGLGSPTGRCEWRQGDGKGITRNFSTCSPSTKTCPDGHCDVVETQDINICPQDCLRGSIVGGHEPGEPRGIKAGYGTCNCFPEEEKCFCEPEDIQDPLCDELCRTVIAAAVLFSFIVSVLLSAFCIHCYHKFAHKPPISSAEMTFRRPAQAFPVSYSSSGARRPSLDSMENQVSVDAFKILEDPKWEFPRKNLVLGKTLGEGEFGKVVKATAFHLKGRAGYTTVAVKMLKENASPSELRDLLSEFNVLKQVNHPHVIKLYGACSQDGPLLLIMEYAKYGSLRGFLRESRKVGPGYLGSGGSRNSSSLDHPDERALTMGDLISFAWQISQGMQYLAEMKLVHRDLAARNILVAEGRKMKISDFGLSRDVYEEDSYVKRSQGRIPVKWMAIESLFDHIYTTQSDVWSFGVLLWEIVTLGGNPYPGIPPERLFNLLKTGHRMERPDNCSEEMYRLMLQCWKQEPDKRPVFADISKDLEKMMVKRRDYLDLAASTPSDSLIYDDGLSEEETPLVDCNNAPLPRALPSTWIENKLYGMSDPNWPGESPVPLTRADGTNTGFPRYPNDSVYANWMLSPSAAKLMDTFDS
Sequence of Kinesin-1 heavy chain/ Tyrosine-protein kinase receptor RET (P07949 whole entry): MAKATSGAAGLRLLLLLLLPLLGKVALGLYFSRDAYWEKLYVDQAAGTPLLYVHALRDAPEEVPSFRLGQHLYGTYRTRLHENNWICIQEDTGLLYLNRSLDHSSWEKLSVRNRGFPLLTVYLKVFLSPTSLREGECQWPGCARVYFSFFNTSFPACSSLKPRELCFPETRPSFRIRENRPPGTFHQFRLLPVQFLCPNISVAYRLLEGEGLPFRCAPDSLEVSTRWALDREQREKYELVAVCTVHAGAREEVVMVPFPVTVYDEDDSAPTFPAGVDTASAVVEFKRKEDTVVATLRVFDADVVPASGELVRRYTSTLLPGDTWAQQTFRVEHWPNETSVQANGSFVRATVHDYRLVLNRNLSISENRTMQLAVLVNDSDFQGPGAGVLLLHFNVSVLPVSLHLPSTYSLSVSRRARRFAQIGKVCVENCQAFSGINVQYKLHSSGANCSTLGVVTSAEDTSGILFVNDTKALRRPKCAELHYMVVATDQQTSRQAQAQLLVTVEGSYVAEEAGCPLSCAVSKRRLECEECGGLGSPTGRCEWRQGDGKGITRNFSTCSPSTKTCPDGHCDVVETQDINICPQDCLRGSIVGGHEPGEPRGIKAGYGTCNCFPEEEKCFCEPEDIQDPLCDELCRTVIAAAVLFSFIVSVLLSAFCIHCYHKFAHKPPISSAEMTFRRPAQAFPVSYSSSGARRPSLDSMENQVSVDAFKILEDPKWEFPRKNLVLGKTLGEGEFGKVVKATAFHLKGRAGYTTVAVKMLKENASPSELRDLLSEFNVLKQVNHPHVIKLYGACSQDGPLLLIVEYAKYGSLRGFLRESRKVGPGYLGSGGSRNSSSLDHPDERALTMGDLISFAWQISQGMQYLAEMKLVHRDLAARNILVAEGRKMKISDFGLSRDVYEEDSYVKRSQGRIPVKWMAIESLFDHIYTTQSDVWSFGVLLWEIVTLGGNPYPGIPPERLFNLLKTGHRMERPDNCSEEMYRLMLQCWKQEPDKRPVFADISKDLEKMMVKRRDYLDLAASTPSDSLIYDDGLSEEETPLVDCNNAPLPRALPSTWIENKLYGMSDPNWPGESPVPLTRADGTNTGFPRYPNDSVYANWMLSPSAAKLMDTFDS
Sequence of Kinesin-1 heavy chain/ Tyrosine-protein kinase receptor RET (P33176 whole entry, further chain): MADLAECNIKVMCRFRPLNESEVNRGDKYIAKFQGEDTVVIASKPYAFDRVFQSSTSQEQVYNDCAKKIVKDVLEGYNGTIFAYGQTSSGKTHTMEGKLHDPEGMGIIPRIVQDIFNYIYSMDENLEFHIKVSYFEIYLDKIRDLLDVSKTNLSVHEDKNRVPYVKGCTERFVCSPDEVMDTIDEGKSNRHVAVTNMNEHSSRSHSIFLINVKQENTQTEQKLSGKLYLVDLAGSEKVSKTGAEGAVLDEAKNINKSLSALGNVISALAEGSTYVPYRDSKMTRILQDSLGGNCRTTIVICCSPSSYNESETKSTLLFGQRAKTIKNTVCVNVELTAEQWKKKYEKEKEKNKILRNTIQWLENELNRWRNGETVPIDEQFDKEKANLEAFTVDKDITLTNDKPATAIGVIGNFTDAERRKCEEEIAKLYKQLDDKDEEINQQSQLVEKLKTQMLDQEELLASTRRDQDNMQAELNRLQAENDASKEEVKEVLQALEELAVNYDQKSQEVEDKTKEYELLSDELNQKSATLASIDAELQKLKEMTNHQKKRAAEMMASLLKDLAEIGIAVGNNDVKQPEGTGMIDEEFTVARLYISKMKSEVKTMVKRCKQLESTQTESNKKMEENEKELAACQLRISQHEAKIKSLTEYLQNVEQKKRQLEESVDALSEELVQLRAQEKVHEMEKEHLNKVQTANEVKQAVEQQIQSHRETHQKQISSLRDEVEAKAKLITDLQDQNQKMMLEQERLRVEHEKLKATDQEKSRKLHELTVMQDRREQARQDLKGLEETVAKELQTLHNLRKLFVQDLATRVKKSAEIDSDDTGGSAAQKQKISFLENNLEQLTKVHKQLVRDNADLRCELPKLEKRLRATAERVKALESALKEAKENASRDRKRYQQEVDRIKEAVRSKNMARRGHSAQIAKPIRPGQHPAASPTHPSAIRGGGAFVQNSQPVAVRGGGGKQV
Sequence of Proto-oncogene tyrosine-protein kinase receptor Ret (Homo sapiens, UniProt P07949, G810R) (P07949 29-1114 G810R limits assumed): as the sequence (P07949 29-1114 V804M limits assumed) above, with M776V, G782R counted along it

Consider `COc1cncc(-c2cn(C)nc2/C=C/c2ccc(NC(=O)Nc3cc(C(C)(C)C(F)(F)F)on3)cc2)c1`, for which the pIC50 in assay [1] was 6.90; in assay [2], 6.14; in [3] it was 6.38; in assay [4], 5.95.
The like results for `COc1cncc(-c2cn[nH]c2/C=C/c2ccc(NC(=O)Nc3cc(C(C)(C)C(F)(F)F)on3)cc2)c1` were, in that order, 7.34, 6.26, 7.34 and 6.88.
Take `COc1cncc(-c2cn[nH]c2/C=C/c2ccc(NC(=O)Nc3cc(C(C)(C)C(F)(F)F)on3)cc2OC)c1`: the pIC50 in [1] was 6.88; in assay [2] it was 5.98; in assay [3] it was 6.15; in assay [4], 6.35.
The like results for `COc1cncc(-c2cn[nH]c2/C=C/c2cccc(NC(=O)Nc3cc(C(C)(C)C(F)(F)F)on3)c2)c1` were, in that order, 5.98, 5.74, 6.11 and 5.66.
As to `COc1cncc(-c2cn[nH]c2/C=C/c2ccc(NC(=O)Nc3cc(C(C)(C)C(F)(F)F)on3)cc2Cl)c1`, the pIC50 is 6.97 in [1], 6.38 in assay [2], 6.51 in [3] and 6.61 in assay [4].
Regarding `COc1cncc(-c2cn[nH]c2/C=C/c2ccc(NC(=O)Nc3cc(C(C)(C)C(F)(F)F)on3)c(F)c2)c1`, the pIC50 in assay [1] is 7.91; in assay [2], 6.25; in assay [3], 7.34; in assay [4] it was 7.66.
As for `CN1CCN(Cc2ccc(NC(=O)c3cncc(C#Cc4cnc(N)c5ncccc45)c3)cc2C(F)(F)F)CC1`, the pIC50 is 8.41 in [5], 7.54 in [6] and 7.54 in [7].
Turning to `CC(C)(c1cc(NC(=O)Nc2ccc(/C=C/c3[nH]ncc3-c3cncc(F)c3)cc2)no1)C(F)(F)F`, the pIC50 in assay [1] is 6.83; in assay [2], 6.23; in assay [3], 7.38; in assay [4] it was 6.84.
As for `COc1ccc(CN2[C@@H]3C[C@H]2CN(c2ccc(-c4cc(OCC(C)(C)O)cn5ncc(C#N)c45)cn2)C3)cn1`, the pIC50 in assay [8] is 7.59.
For `COc1cncc(-c2cn[nH]c2/C=C/c2ccc(NC(=O)Nc3cc(C(C)(C)C(F)(F)F)on3)cc2F)c1`, the pIC50 in assay [1] is 6.90; in assay [2] it was 6.27; in assay [3], 6.76; in assay [4], 6.75.
Take `COC(=O)c1cncc(-c2cn[nH]c2/C=C/c2ccc(NC(=O)Nc3cc(C(C)(C)C(F)(F)F)on3)cc2)c1`: the pIC50 in assay [1] was 7.05; in assay [2], 5.99; in [3], 6.42; in [4], 6.37.
On the same counts, the results for `COc1cc(-c2cn[nH]c2/C=C/c2ccc(NC(=O)Nc3cc(C(C)(C)C(F)(F)F)on3)cc2)ccn1` are 7.07, 5.92, 6.92 and 6.68.
With `COc1cncc(-c2cnn(C)c2/C=C/c2ccc(NC(=O)Nc3cc(C(C)(C)C(F)(F)F)on3)cc2)c1`, the pIC50 in assay [1] was 6.65; in assay [2], 5.82; in assay [3] it was 6.19; in [4] it was 6.08.
On the same counts, the results for `COc1cncc(-c2c[nH]nc2/C=C\c2ccc(NC(=O)Nc3cc(C(C)(C)C(F)(F)F)on3)cc2)c1` are 6.39, 5.75, 6.16 and 6.09.
The like results for `CC(C)(c1cc(NC(=O)Nc2ccc(/C=C/c3[nH]ncc3-c3cncc(C#N)c3)cc2)no1)C(F)(F)F` were, in that order, 6.76, 6.07, 6.69 and 6.56.
For the compound `COc1ccc(-c2c[nH]nc2-c2ccc(NC(=O)Nc3cc(C(C)(C)C(F)(F)F)on3)cc2)cn1`, the pIC50 in assay [1] is 6.36; in assay [2], 6.64; in assay [3] it was 6.44; in [4], 6.18.
With `CO[C@]1(C(=O)N[C@@H](C)c2ccc(-n3cc(F)cn3)nc2)CC[C@H](c2nc(C)cc(Nc3cc(C)[nH]n3)n2)CC1` [PRALSETINIB], the pIC50 was 8.30 in assay [9]; 8.39 in assay [10]; 6.94 in assay [11]; 6.45 in assay [12]; 8.41 in assay [1]; 8.31 in assay [2]. For the same compound, the pIC50 is 6.98 in [3] and 6.49 in assay [4].
In the case of `COc1cncc(-c2cn[nH]c2/C=C/c2ccc(NC(=O)Nc3cc(C(C)(C)C(F)(F)F)on3)cc2C)c1`, the pIC50 in assay [1] is 6.57; in assay [2], 6.20; in assay [3] it was 6.30; in [4], 6.33.
On the same counts, the results for `COc1ccc(-c2cn[nH]c2CCc2ccc(NC(=O)Nc3cc(C(C)(C)C(F)(F)F)on3)cc2)cn1` are 6.10, 5.44, 6.14 and 5.99.
Turning to `CNC(=O)c1cncc(-c2cn[nH]c2/C=C/c2ccc(NC(=O)Nc3cc(C(C)(C)C(F)(F)F)on3)cc2)c1`, the pIC50 in [1] is 6.65; in assay [2] it was 5.51; in assay [3] it was 6.13; in assay [4], 5.92.
For `C[C@H]1CNC(=O)c2cnn3cc4c(nc23)N(Cc2cc(F)cnc2O1)[C@@H]1CCC[C@@H]1O4` [ENBEZOTINIB], the pIC50 in [13], in assay [14] and in assay [15] was 9.00 each time.
Consider `COc1cncc(-c2cn[nH]c2/C=C/c2ccc(NC(=O)Nc3cc(C(C)(C)C(F)(F)F)on3)c(OC)c2)c1`, for which the pIC50 in [1] is 6.68; in [2], 6.12; in [3], 6.39; in assay [4], 6.45.
On the same counts, the results for `COc1cncc(-c2cn[nH]c2/C=C/c2ccc(NC(=O)Nc3cc(C(C)(C)C(F)(F)F)on3)c(C)c2)c1` are 7.88, 6.10, 7.58 and 7.53.
On the same counts, the results for `COc1ccc(-c2cn[nH]c2/C=C/c2ccc(NC(=O)Nc3cc(C(C)(C)C(F)(F)F)on3)cc2)cn1` are 7.01, 5.69, 6.93 and 6.52.

Broadly, the pIC50 is the negative decadic logarithm of the IC50, by convention in mol/L.

The values above are taken from ChEMBL document CHEMBL6103575, “Design, synthesis and evaluation of (E)-1-(4-(2-(1H-pyrazol-5-yl)vinyl)phenyl) derivatives as next generation selective RET inhibitors overcoming RET solvent front mutations (G810C/R)” (Eur J Med Chem, 2025).
